This passage reports FAD occupancy results from publication PMC7789494 (Microbial Cell Factories, 2021).

The target of this assay is T1, PcCDHTr (Phanerodontia chrysosporium, UniProt Q01738).
T1 construct: gene CDH-1; full two-domain flavocytochrome, native signal peptide (cleaved), untagged, secreted by Trichoderma reesei delta-xyr1; 83 kDa by SDS-PAGE
The experiment in a line: TCA precipitation, released FAD by A450. It is filed as binding. The following applies: co-purified cofactor.

T1 sequence (Q01738 19-773): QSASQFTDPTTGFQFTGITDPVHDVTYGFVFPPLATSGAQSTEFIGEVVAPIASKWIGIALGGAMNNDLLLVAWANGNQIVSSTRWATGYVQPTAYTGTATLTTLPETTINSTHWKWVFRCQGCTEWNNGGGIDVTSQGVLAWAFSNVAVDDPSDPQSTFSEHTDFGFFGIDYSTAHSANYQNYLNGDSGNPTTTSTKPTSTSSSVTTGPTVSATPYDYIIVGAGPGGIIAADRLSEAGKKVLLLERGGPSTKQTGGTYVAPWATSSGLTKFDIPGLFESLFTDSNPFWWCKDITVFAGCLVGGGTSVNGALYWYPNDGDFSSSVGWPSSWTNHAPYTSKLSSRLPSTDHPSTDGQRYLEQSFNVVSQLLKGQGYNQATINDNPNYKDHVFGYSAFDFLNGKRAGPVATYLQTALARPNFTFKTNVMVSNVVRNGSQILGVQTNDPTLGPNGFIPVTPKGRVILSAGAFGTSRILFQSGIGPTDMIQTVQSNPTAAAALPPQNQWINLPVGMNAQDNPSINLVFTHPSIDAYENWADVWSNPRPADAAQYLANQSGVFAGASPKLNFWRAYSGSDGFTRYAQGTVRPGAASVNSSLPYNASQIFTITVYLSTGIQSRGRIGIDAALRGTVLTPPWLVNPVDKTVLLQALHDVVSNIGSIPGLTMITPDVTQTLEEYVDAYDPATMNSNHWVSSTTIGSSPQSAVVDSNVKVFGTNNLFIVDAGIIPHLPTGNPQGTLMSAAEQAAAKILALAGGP

On to `Cc1cc2nc3c(=O)[nH]c(=O)nc-3n(C[C@H](O)[C@H](O)[C@H](O)COP(=O)(O)OP(=O)(O)OC[C@H]3O[C@@H](n4cnc5c(N)ncnc54)[C@H](O)[C@@H]3O)c2cc1C` [FAD], for which the FAD occupancy stood at 70%.
